Source: ChEMBL document CHEMBL5143566, “Discovery of Pyrazolo[1,5-a]pyrazin-4-ones as Potent and Brain Penetrant GluN2A-Selective Positive Allosteric Modulators Reducing AMPA Receptor Binding Activity” (Bioorg Med Chem, 2022)
pEC50, pIC50: −log10 of the molar value. Active and inactive are the calls of the source. No cut-off for these calls is given here.

How the values were obtained:
[1] = 1-Octanol/aqueous buffer distribution coefficient, log D of the compound at pH 7.4 by HPLC analysis; format: physicochemical
[2] = target: T1, Glutamate NMDA receptor; GRIN1/GRIN2A (Homo sapiens, UniProt Q05586+Q12879); test: Positive allosteric modulator activity at GluN1a/GluN2A (unknown origin) expressed in CHO cells in presence of glutamate by Ca2+ influx assay; format: cell-based
Glutamate receptor 2 [3] = target: T2, Glutamate receptor 2 (Homo sapiens, UniProt P42262); test: Displacement of [3H]-HBT1 from His-tagged GluA2-AMPA (unknown origin) receptor expressed in CHO cells in presence of glutamate by scintillation proximity assay; format: cell-based
[4] = Clearance in rat liver microsomes at 1 uM in presence of NADPH measured for 15 to 30 min by LC-MS/MS analysis; format: ADME, Microsome; settings: time 15-30 min, read-out: CLH
[5] = target: T1, Glutamate NMDA receptor; GRIN1/GRIN2A; test: Positive allosteric modulator activity at GluN1a/GluN2A (unknown origin) expressed in CHO cells assessed as maximum potentiation at 30 uM in presence of glutamate by Ca2+ influx assay relative to control; format: cell-based
Glutamate receptor 2 [6] = target: T2, Glutamate receptor 2; test: Positive allosteric modulator activity at GluA2-AMPA receptor (unknown origin) by FLIPR assay
[7] = target: Glutamate receptor ionotropic, NMDA 2A (Homo sapiens, UniProt Q05586+Q12879); test: Positive allosteric modulator activity at GluN2A receptor (unknown origin) by FLIPR assay
Glutamate receptor 2 [8] = target: T2, Glutamate receptor 2; test: Displacement of [3H]-HBT1 from GluA2-AMPA receptor (unknown origin) in presence of glutamate by scintillation proximity assay
Glutamate receptor 2 [9] = target: T2, Glutamate receptor 2; test: Positive allosteric modulator activity at GluA2-AMPA receptor (unknown origin) assessed as maximum potentiation by FLIPR assay relative to control
[10] = target: Glutamate receptor ionotropic, NMDA 2A (Homo sapiens) (UniProt Q12879); test: Positive allosteric modulator activity at GluN2A receptor (unknown origin) assessed as maximum potentiation by FLIPR assay relative to control; settings: filed as positive allosteric modulator
[11] = Clearance in human liver microsomes at 1 uM in presence of NADPH measured for 15 to 30 min by LC-MS/MS analysis; format: ADME, Microsome; settings: time 15-30 min, read-out: CLH
Homo sapiens [12] = species on record: Homo sapiens; test: Selectivity index, ratio of EC50 for GluN1a/GluN2C (unknown origin) expressed in CHO cells to EC50 for GluN1a/GluN2A (unknown origin) expressed in CHO cells; format: cell-based
[13] = Drug concentration in rat plasma at 3 mg/kg, po after 1 hrs by LC-MS/MS analysis; format: ADME, organism-based
Homo sapiens [14] = species on record: Homo sapiens; test: Selectivity index, ratio of EC50 for GluN1a/GluN2D (unknown origin) expressed in CHO cells to EC50 for GluN1a/GluN2A (unknown origin) expressed in CHO cells; format: cell-based
[15] = target: Ionotropic glutamate receptor NMDA 1/2D (Homo sapiens) (UniProt Q05586+O15399); test: Positive allosteric modulator activity at GluN1a/GluN2D (unknown origin) expressed in CHO cells at 30 uM in presence of glutamate by Ca2+ influx assay relative to control; format: cell-based; settings: filed as positive allosteric modulator
CHO = test: Positive allosteric modulator activity at GluN1a/GluN2B (unknown origin) expressed in CHO cells at 30 uM in presence of glutamate by Ca2+ influx assay relative to control; format: cell-based; settings: Homo sapiens
[16] = Drug concentration in rat brain at 3 mg/kg, po after 1 hrs by LC-MS/MS analysis; format: ADME, organism-based; settings: read-out: Ct
[17] = Cmax in rat at 1 mg/kg, iv by LC-MS/MS analysis; format: ADME, organism-based; design: dose 1 mg/kg, route iv; settings: in vivo
[18] = Drug concentration in rat brain at 3 mg/kg, po after 0.5 hrs by LC-MS/MS analysis; format: ADME, organism-based; settings: read-out: Ct
[19] = Oral bioavailability in rat at 10 mg/kg by LC-MS/MS analysis; format: ADME, organism-based; settings: in vivo
[20] = AUC in rat at 10 mg/kg, po by LC-MS/MS analysis; format: ADME, organism-based; design: dose 10 mg/kg, route po; settings: in vivo
[21] = target: T3, Ionotropic glutamate receptor NMDA 1/2C (Homo sapiens, UniProt Q05586+Q14957); test: Positive allosteric modulator activity at GluN1a/GluN2C (unknown origin) expressed in CHO cells in presence of glutamate by Ca2+ influx assay; format: cell-based
[22] = MRT in rat at 10 mg/kg, po by LC-MS/MS analysis; format: ADME, organism-based; settings: in vivo
[23] = Ratio of drug concentration in brain to plasma at 3 mg/kg, po after 1 hr by LC-MS/MS analysis; format: ADME, organism-based; settings: rat, brain and plasma, read-out: BPR
[24] = Drug concentration in rat plasma at 3 mg/kg, po after 0.5 hrs by LC-MS/MS analysis; format: ADME, organism-based
Homo sapiens [25] = species on record: Homo sapiens; test: Selectivity index, ratio of EC50 for GluN1a/GluN2B (unknown origin) expressed in CHO cells to EC50 for GluN1a/GluN2A (unknown origin) expressed in CHO cells; format: cell-based
Rattus norvegicus = test: Induction of LTP enhancement in Sprague-Dawley rat assessed as increase in LTP enhancement in hippocampal slices at 10 mg/kg, po; format: functional, organism-based
[26] = target: T3, Ionotropic glutamate receptor NMDA 1/2C; test: Positive allosteric modulator activity at GluN1a/GluN2C (unknown origin) expressed in CHO cells at 30 uM in presence of glutamate by Ca2+ influx assay relative to control; format: cell-based; settings: filed as positive allosteric modulator
[27] = Ratio of drug concentration in brain to plasma at 3 mg/kg, po after 0.5 hr by LC-MS/MS analysis; format: ADME, organism-based; settings: rat, brain and plasma, read-out: BPR
[28] = Ratio of drug concentration in brain to plasma at 3 mg/kg, po after 2 hr by LC-MS/MS analysis; format: ADME, organism-based; settings: rat, brain and plasma, read-out: BPR
[29] = target: Ionotropic glutamate receptor NMDA 1/2D (Homo sapiens, UniProt O15399+Q05586); test: Positive allosteric modulator activity at GluN1a/GluN2D (unknown origin) expressed in CHO cells in presence of glutamate by Ca2+ influx assay; format: cell-based
[30] = Drug concentration in rat plasma at 3 mg/kg, po after 2 hrs by LC-MS/MS analysis; format: ADME, organism-based
[31] = Drug concentration in rat brain at 3 mg/kg, po after 2 hrs by LC-MS/MS analysis; format: ADME, organism-based; settings: read-out: Ct
[32] = Volume of distribution at steady state in rat at 1 mg/kg, iv by LC-MS/MS analysis; format: ADME, organism-based; settings: in vivo, read-out: Vdss
[33] = Total clearance in rat at 1 mg/kg, iv by LC-MS/MS analysis; format: ADME, organism-based; settings: in vivo
[34] = filed as positive allosteric modulator

T2 sequence (P42262 whole entry): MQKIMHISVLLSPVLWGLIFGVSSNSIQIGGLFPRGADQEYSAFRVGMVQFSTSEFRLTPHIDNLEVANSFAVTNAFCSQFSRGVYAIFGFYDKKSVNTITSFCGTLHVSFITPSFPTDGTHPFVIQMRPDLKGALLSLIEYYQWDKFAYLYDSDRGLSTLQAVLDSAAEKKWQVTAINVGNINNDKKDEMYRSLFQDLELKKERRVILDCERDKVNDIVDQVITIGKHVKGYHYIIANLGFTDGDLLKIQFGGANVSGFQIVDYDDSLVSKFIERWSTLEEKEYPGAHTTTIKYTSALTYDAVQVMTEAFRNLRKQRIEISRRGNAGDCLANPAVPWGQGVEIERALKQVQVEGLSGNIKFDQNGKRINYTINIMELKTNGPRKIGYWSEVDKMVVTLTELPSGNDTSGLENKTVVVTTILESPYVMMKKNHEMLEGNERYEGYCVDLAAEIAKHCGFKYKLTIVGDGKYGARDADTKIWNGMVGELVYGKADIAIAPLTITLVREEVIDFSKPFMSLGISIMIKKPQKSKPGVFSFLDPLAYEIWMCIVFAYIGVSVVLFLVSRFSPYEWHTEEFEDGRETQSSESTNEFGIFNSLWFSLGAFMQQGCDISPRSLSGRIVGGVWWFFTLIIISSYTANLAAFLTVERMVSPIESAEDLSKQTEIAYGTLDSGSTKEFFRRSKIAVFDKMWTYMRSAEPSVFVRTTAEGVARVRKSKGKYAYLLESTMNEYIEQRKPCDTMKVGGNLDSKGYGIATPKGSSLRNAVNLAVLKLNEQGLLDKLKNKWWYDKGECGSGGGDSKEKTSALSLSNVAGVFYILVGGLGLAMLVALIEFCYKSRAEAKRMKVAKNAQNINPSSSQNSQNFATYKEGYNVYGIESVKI

Structure (SMILES): Cc1cn(CCC#N)c(=O)c2cc(Cn3nc(Br)cc3Cl)nn12
- logD [1]: 2.16
- pEC50 [2]: 5.82
- pIC50 (Glutamate receptor 2 [3]): < 4.52
- microsomal CLint at 1 µM [4]: 1 µL/min/mg
- %max [5, 34]: 160%

Structure (SMILES): CCN(Cc1cc2c(=O)n(CCC#N)ccc2s1)c1ccc(F)cc1
- logD [1]: 2.92
- pEC50 [2]: < 4.52
- pIC50 (Glutamate receptor 2 [3]): 6.21
- %max [5, 34]: 320%

Structure (SMILES): Cc1cn(CCC#N)c(=O)c2cc(Cn3nc(C(F)F)cc3Cl)nn12
- logD [1]: 1.88
- pEC50 [2]: 5.70
- pIC50 (Glutamate receptor 2 [3]): < 4.52
- %max [5, 34]: 220%

Structure (SMILES): N#C[C@H]1C[C@H]1c1c(Cl)ccc2nc(Cn3nc(C(F)(F)F)cc3Cl)cc(=O)n12
- pEC50 (Glutamate receptor 2 [6]): < 4.52
- pEC50 [7]: 7.41
- pIC50 (Glutamate receptor 2 [8]): 6.42
- %max (Glutamate receptor 2 [9]): 61%
- %max [10]: 471%

Structure (SMILES): CCN(Cc1cc2c(C)cn(CCC#N)c(=O)c2s1)c1ccc(F)cc1
- logD [1]: 3.01
- pEC50 [2]: 6.74
- pIC50 (Glutamate receptor 2 [3]): < 4.52
- %max [5, 34]: 480%

Structure (SMILES): Cc1cc(Cl)n(Cc2cc3c(=O)n(CCC#N)cc(C)n3n2)n1
- logD [1]: 1.84
- pIC50 (Glutamate receptor 2 [3]): < 4.52
- microsomal CLint at 1 µM [11]: 8 µL/min/mg
- microsomal CLint at 1 µM [4]: 10 µL/min/mg
- %max [5]: < 150%

Structure (SMILES): Cc1cn([C@H](C)CC#N)c(=O)c2cc(Cn3nc(C(F)F)cc3Cl)nn12
- Ratio EC50 (Homo sapiens [12]): 19
- logD [1]: 2.06
- concentration at 1 h [13]: 397 ng/mL
- Ratio EC50 (Homo sapiens [14]): 19
- %max [15]: 260%
- %max (CHO): < 150%
- concentration at 1 h [16]: 187 ng/g
- Cmax [17]: 1910 ng/mL
- concentration at 0.5 h [18]: 307 ng/g
- bioavailability [19]: 21.4%
- pEC50 [2]: 6.29
- AUC [20]: 9140 ng·h/mL
- pEC50 [21]: < 4.52
- MRT [22]: 3.5 h
- Kp at 1 h [23]: 0.47
- concentration at 0.5 h [24]: 523 ng/mL
- Ratio EC50 (Homo sapiens [25]): > 59
- Activity (Rattus norvegicus): Active
- %max [26]: 200%
- pIC50 (Glutamate receptor 2 [3]): < 4.52
- Kp at 0.5 h [27]: 0.59
- microsomal CLint at 1 µM [11]: 33 µL/min/mg
- Kp at 2 h [28]: 0.51
- pEC50 [29]: < 4.52
- concentration at 2 h [30]: 286 ng/mL
- concentration at 2 h [31]: 146 ng/g
- %max [5, 34]: 350%
- Vd [32]: 0.657 L/kg
- clearance [33]: 3.92 mL/min/kg

Structure (SMILES): N#C[C@H]1C[C@H]1c1c(C(F)(F)F)sc2nc(Cn3nc(C(F)(F)F)cc3Cl)cc(=O)n12
- pEC50 (Glutamate receptor 2 [6]): 4.62
- pEC50 [7]: 7.96
- pIC50 (Glutamate receptor 2 [8]): 6.06
- %max (Glutamate receptor 2 [9]; BLD = below limit of detection): Bld
- %max [10]: 416%

Structure (SMILES): Cc1cn([C@@H](C)CC#N)c(=O)c2cc(Cn3nc(C(F)F)cc3Cl)nn12
- logD [1]: 2.06
- pIC50 (Glutamate receptor 2 [3]): < 4.52
- %max [5]: < 150%

Structure (SMILES): CCN(Cc1cc2c(=O)n(CCC#N)cc(C)n2n1)c1ccc(F)cc1
- logD [1]: 2.83
- pEC50 [2]: 6.80
- pIC50 (Glutamate receptor 2 [3]): 4.66
- microsomal CLint at 1 µM [11]: 37 µL/min/mg
- microsomal CLint at 1 µM [4]: 91 µL/min/mg
- %max [5, 34]: 420%

Structure (SMILES): CCN(Cc1ccc(C(=O)N2CCC[C@@H]2C#N)s1)c1ccc(F)cc1
- logD [1]: 2.06
- pEC50 (Glutamate receptor 2 [6]): < 4.52
- pEC50 [7]: < 4.52
- pIC50 (Glutamate receptor 2 [8]): 5.92
- %max (Glutamate receptor 2 [9]; BLD = below limit of detection): Bld
- %max [10]: 270%

Structure (SMILES): CCN(Cc1cc2c(=O)n(CCC#N)ccn2n1)c1ccc(F)cc1
- logD [1]: 2.45
- pEC50 [2]: 5.28
- pIC50 (Glutamate receptor 2 [3]): 4.66
- %max [5, 34]: 420%

Structure (SMILES): CCc1cn(CCC#N)c(=O)c2sc(CN(CC)c3ccc(F)cc3)cc12
- logD [1]: 3.34
- pEC50 [2]: 5.36
- pIC50 (Glutamate receptor 2 [3]): < 4.52
- %max [5, 34]: 410%

Structure (SMILES): CCN(Cc1cc2cc(C)n(CCC#N)c(=O)c2s1)c1ccc(F)cc1
- logD [1]: 2.95
- pEC50 [2]: 6.22
- pIC50 (Glutamate receptor 2 [3]): 6.21
- %max [5, 34]: 440%

Structure (SMILES): CCN(Cc1cc2ccn(CCC#N)c(=O)c2s1)c1ccc(F)cc1
- logD [1]: 2.68
- pEC50 [2]: 5.64
- pIC50 (Glutamate receptor 2 [3]): < 4.52
- %max [5, 34]: 450%

Structure (SMILES): CCN(Cc1cc2ccn(CC#N)c(=O)c2s1)c1ccc(F)cc1
- logD [1]: 2.63
- pEC50 [2]: < 4.52
- pIC50 (Glutamate receptor 2 [3]): < 4.52
- %max [5, 34]: 230%

Structure (SMILES): Cc1cn(CCC#N)c(=O)c2cc(Cn3nc(Cl)cc3Cl)nn12
- logD [1]: 2.07
- pEC50 [2]: < 4.52
- pIC50 (Glutamate receptor 2 [3]): < 4.52
- microsomal CLint at 1 µM [4]: 13 µL/min/mg
- %max [5]: < 150%

Structure (SMILES): Cc1cn(CCC#N)c(=O)c2cc(Cn3nc(C(F)(F)F)cc3Cl)nn12
- logD [1]: 2.32
- pIC50 (Glutamate receptor 2 [3]): 4.72
- microsomal CLint at 1 µM [4]: 7 µL/min/mg
- %max [5, 34]: 420%
